Reference: patent US20250263370A1 (Tay Therapeutics Limited, priority 2022, published 2025)
“And” between values parts separate entries of the source, which are not always exact repeats. Identical values can stand only once. “Also recorded” adds a separate entry of the source.

Tested on: collagen-induced arthritis
Assay: Collagen-induced arthritis (CIA) model in rats: body weight, paw volume, clinical scores, clinical observations
Conditions: CIA rats
[1] = 10 mg/kg twice daily P.O. (group 6), day 21
[2] = 30 mg/kg twice daily P.O. (group 7)
[3] = 30 mg/kg twice daily P.O. (group 7), day 15
[4] = 30 mg/kg twice daily P.O. (group 7), day 19
[5] = 30 mg/kg twice daily P.O. (group 7), day 21

Description: Prior to be randomly placed in treatment groups, animals were weighed, and paw volume was measured. Once randomly assigned to treatment groups, on Day 0, animals in groups 2-9 were immunized by subcutaneous injection at the base of the tail.
The immunization comprised 100 μL of the CFA+Collagen emulsion (prepared according to the method in Experimental Method A). Animals in group one received no immunization. Seven days after the first injection, animals in groups 2-9 received a booster immunization comprising 200 μL of the IFA+Collagen emulsion (prepared according to the method in Experimental Method A).
Starting on Day 0, animals in group 1 and 2 were administered daily doses of the vehicle per os (P.O.) for 21 days. […] The twice daily doses for animals in groups 4-9 were 8 hours apart (e.g., the first dose at 8:00 AM and the second dose at 4:00 PM).
Body weight of all animals was recorded daily for the 21-day period. Blind clinical scores on all four limbs were conducted for all animals in the study. Animals were assessed prior to receiving their first dose of the compound or control, and scores for each limb were combined to a total daily score for each animal. Clinical score assessments were performed on Day 0, 6, 12, 13, 14, 15, 18, 19, and 21 (for a total of 9 daily scores).
Paw volume was recorded for each animal on Day 0, 6, 12, 13, 14, 15, 18, 19, and 21 (for a total of 9 measurements). To measure paw volume, animals were gently held with one hand while the hind paw was placed into a plethysmometer with the other hand. Lipid displacement by the paw was recorded and used to represent paw volume.
All data measured and recorded was analyzed using SPSS 16.0 software. Groups were compared using one-way ANOVA and significance was set at p<0.05.

`CNC(=O)c1[nH]c(C(=O)NC2CCC2)cc1O[C@@H](C)c1ccccc1` (stereo in doubt) [Example 101, N^5-cyclobutyl-N^2-methyl-3-(1-phenylethoxy)-1H-pyrrole-2,5-dicarboxamide] was tested, and the “animals with a score of 2 on one hind limb and no score on the other hind limb” value [1] was 1/8, the “animals with scores of 1 or 2 on both hind limbs” value [1] was 2/8 and the “animals with scores of 3 on each hind limb” value [1] was 3/8. For the same molecule, the “animals with scores of 4 on one or more hind limbs” value (10 mg/kg twice daily P.O. (group 6), days 19 and 21) was 2/8, the “paw volume increase at plateau relative to day 0” value (10 mg/kg twice daily P.O. (group 6), plateau at day 18) was “approximately 50%” and the “Average animal paw volume percent change” value (10 mg/kg, Day 0, left hind paw (L)) was 0.00%. For the same molecule, the “Animal paw volume Day 0 L” value (10 mg/kg, Day 0, left paw, individual animals) was 1.39 mL and 1.26 mL (2×) and 1.29 mL (2×) and 1.31 mL and 1.30 mL and 1.37 mL, the “Average animal paw volume percent change” value (10 mg/kg, Day 0, right hind paw (R)) was 0.00% and the “Animal paw volume Day 0 R” value (10 mg/kg, Day 0, right paw, individual animals) was 1.41 mL and 1.26 mL (2×) and 1.30 mL (3×) and 1.31 mL and 1.37 mL. The “Average animal paw volume percent change” value (10 mg/kg, Day 6, left hind paw (L)) was 1.14%, the “Animal paw volume Day 6 L” value (10 mg/kg, Day 6, left paw, individual animals) was 1.41 mL and 1.23 mL and 1.31 mL and 1.33 mL and 1.34 mL and 1.35 mL and 1.37 mL and 1.26 mL and the “Average animal paw volume percent change” value (10 mg/kg, Day 6, right hind paw (R)) was 0.87%. The “Animal paw volume Day 6 R” value (10 mg/kg, Day 6, right paw, individual animals) was 1.41 mL and 1.24 mL and 1.32 mL and 1.33 mL and 1.34 mL (2×) and 1.36 mL and 1.26 mL, the “Average animal paw volume percent change” value (10 mg/kg, Day 12, left hind paw (L)) was 7.61% and the “Animal paw volume Day 12 L” value (10 mg/kg, Day 12, left paw, individual animals) was 1.52 mL and 1.26 mL and 1.43 mL and 1.63 mL and 1.34 mL and 1.44 mL and 1.39 mL and 1.27 mL. For the same molecule, the “Average animal paw volume percent change” value (10 mg/kg, Day 12, right hind paw (R)) was 7.98%, the “Animal paw volume Day 12 R” value (10 mg/kg, Day 12, right paw, individual animals) was 1.44 mL and 1.27 mL and 1.88 mL and 1.33 mL and 1.35 mL and 1.38 mL and 1.39 mL and 1.29 mL and the “Average animal paw volume percent change” value (10 mg/kg, Day 13, left hind paw (L)) was 16.61%. For the same molecule, the “Animal paw volume Day 13 L” value (10 mg/kg, Day 13, left paw, individual animals) was 1.71 mL and 1.32 mL and 1.81 mL and 1.83 mL and 1.35 mL and 1.45 mL and 1.44 mL and 1.31 mL, the “Average animal paw volume percent change” value (10 mg/kg, Day 13, right hind paw (R)) was 10.89% and the “Animal paw volume Day 13 R” value (10 mg/kg, Day 13, right paw, individual animals) was 1.54 mL and 1.32 mL and 1.90 mL and 1.37 mL (2×) and 1.41 mL and 1.44 mL and 1.29 mL. The “Average animal paw volume percent change” value (10 mg/kg, Day 14, left hind paw (L)) was 30.15%, the “Animal paw volume Day 14 L” value (10 mg/kg, Day 14, left paw, individual animals) was 2.00 mL and 1.50 mL and 2.07 mL and 2.45 mL and 1.39 mL and 1.45 mL and 1.44 mL and 1.31 mL and the “Average animal paw volume percent change” value (10 mg/kg, Day 14, right hind paw (R)) was 21.45%. For the same molecule, the “Animal paw volume Day 14 R” value (10 mg/kg, Day 14, right paw, individual animals) was 1.62 mL and 1.68 mL and 2.23 mL and 1.67 mL and 1.37 mL and 1.43 mL and 1.46 mL and 1.28 mL, the “Average animal paw volume percent change” value (10 mg/kg, Day 15, left hind paw (L)) was 40.41% and the “Animal paw volume Day 15 L” value (10 mg/kg, Day 15, left paw, individual animals) was 2.13 mL and 1.73 mL and 2.33 mL and 2.49 mL and 1.41 mL and 1.60 mL and 1.49 mL and 1.51 mL. For the same molecule, the “Average animal paw volume percent change” value (10 mg/kg, Day 15, right hind paw (R)) was 34.05%, the “Animal paw volume Day 15 R” value (10 mg/kg, Day 15, right paw, individual animals) was 1.93 mL and 1.83 mL and 2.53 mL and 1.91 mL and 1.38 mL and 1.45 mL and 1.51 mL and 1.52 mL and the “Average animal paw volume percent change” value (10 mg/kg, Day 18, left hind paw (L)) was 59.21%. For the same molecule, the “Animal paw volume Day 18 L” value (10 mg/kg, Day 18, left paw, individual animals) was 2.40 mL and 2.04 mL and 2.54 mL and 2.70 mL and 1.51 mL (2×) and 2.30 mL and 1.64 mL, the “Average animal paw volume percent change” value (10 mg/kg, Day 18, right hind paw (R)) was 54.15% and the “Animal paw volume Day 18 R” value (10 mg/kg, Day 18, right paw, individual animals) was 2.23 mL and 2.08 mL and 2.52 mL and 2.74 mL and 1.59 mL and 1.91 mL and 1.58 mL and 1.51 mL. The “Average animal paw volume percent change” value (10 mg/kg, Day 19, left hind paw (L)) was 58.75%, the “Animal paw volume Day 19 L” value (10 mg/kg, Day 19, left paw, individual animals) was 2.38 mL and 2.04 mL and 2.49 mL and 2.64 mL and 1.48 mL and 2.32 mL and 1.65 mL and 1.60 mL and the “Average animal paw volume percent change” value (10 mg/kg, Day 19, right hind paw (R)) was 54.16%. The “Animal paw volume Day 19 R” value (10 mg/kg, Day 19, right paw, individual animals) was 2.36 mL and 2.05 mL and 2.47 mL and 2.71 mL and 1.58 mL and 1.87 mL and 1.57 mL and 1.56 mL, the “Average animal paw volume percent change” value (10 mg/kg, Day 21, left hind paw (L)) was 60.25% and the “Animal paw volume Day 21 L” value (10 mg/kg, Day 21, left paw, individual animals) was 2.38 mL and 2.03 mL and 2.48 mL and 2.64 mL and 1.48 mL and 2.33 mL and 1.83 mL and 1.60 mL. For the same molecule, the “Average animal paw volume percent change” value (10 mg/kg, Day 21, right hind paw (R)) was 59.20%, the “Animal paw volume Day 21 R” value (10 mg/kg, Day 21, right paw, individual animals) was 2.35 mL and 2.04 mL and 2.46 mL and 2.68 mL and 1.58 mL and 2.15 mL and 1.82 mL and 1.62 mL and the “animals that never showed signs of disease” value [2] was “one animal”. The “average clinical score relative to CIA + vehicle (group 2)” value [2] was “significantly decreased (p<0.01) relative to animals in group 2 on days 18, 19 and 21”, the “average overall clinical score at plateau” value [2] was 4 and the “day on which paw volume noticeably increased” value [2] was roughly 19 days. The “effect on hind paw volume” value [2] was “most effective dose at preventing an increase in paw volume; also recorded: Paw volume increases were delayed; also recorded: proved most effective”, the “paw volume increase at plateau relative to day 0” value [2] was “approximately 35%” and the “paw volume relative to CIA + vehicle (group 2)” value [2] was “significantly reduced relative to group 2 at day 15 (left paw, p<0.05) and days 18, 19, 21 (both paws, p<0.01)”. The “animals exhibiting signs of disease” value (30 mg/kg twice daily P.O. (group 7), day 12) was “One animal”, the animals exhibiting disease [3] was 4/8 and the “animals with a score of 2 on one hind limb” value [3] was 2/8. For the same molecule, the animals exhibiting disease (30 mg/kg twice daily P.O. (group 7), day 16) was 5/8, the “animals with scores of 2 or 3 on both hind limbs” value (30 mg/kg twice daily P.O. (group 7), day 18) was 3/8 and the animals exhibiting disease [4] was 7/8. The “animals with a score of 2 or 3 on both hind limbs” value [4] was 4/8, the “animals with a clinical score of 3 on both hind limbs” value [5] was 4/8 and the “animals with a score of 1 on one or both hind limbs” value [5] was 3/8. The “animals with no clinical score” value [5] was 1/8 and the “Average animal paw volume percent change” value (30 mg/kg, Day 0, left hind paw (L)) was 0.00%.
